The assay has as its target T1, PIKfyve (Homo sapiens, UniProt Q9Y2I7).
T1 construct: T7 phage fusion (kinase-tagged phage) or DNA tag for qPCR; made in house; host or cells: E. coli BL21-derived host (T7 phage) for most kinases, HEK-293 for the rest
Briefly: Kinase binding assay (kinase-tagged T7 phage, affinity beads, qPCR readout), Kd determination. The following applies: 11-point 3-fold dilution series. The method, then: Kinase assays. For most assays, kinase-tagged T7 phage strains were prepared in an E. coli host derived from the BL21 strain. E. coli were grown to log-phase and infected with T7 phage and incubated with shaking at 32° C. until lysis. The lysates were centrifuged and filtered to remove cell debris. The remaining kinases were produced in HEK-293 cells and subsequently tagged with DNA for qPCR detection. Streptavidin-coated magnetic beads were treated with biotinylated small molecule ligands for 30 minutes at room temperature to generate affinity resins for kinase assays. The liganded beads were blocked with excess biotin and washed with blocking buffer (SeaBlock (Pierce), 1% BSA, 0.05% Tween 20, 1 mM DTT) to remove unbound ligand and to reduce non-specific binding. Binding reactions were assembled by combining kinases, liganded affinity beads, and test compounds in 1× binding buffer (20% SeaBlock, 0.17×PBS, 0.05% Tween 20, 6 mM DTT). Test compounds were prepared as 111× stocks in 100% DMSO. Kds were determined using an 11-point 3-fold compound dilution series with three DMSO control points. All compounds for Kd measurements are distributed by acoustic transfer (non-contact dispensing) in 100% DMSO. The compounds were then diluted directly into the assays such that the final concentration of DMSO was 0.9%. All reactions performed in polypropylene 384-well plate. Each was a final volume of 0.02 ml. The assay plates were incubated at room temperature with shaking for 1 hour and the affinity beads were washed with wash buffer (1×PBS, 0.05% Tween 20). The beads were then re-suspended in elution buffer (1×PBS, 0.05% Tween 20, 0.5 μM non-biotinylated affinity ligand) and incubated at room temperature with shaking for 30 minutes. The kinase concentration in the eluates was measured by qPCR.
An 11-point 3-fold serial dilution of each test compound was prepared in 100% DMSO at 100× final test concentration and subsequently diluted to 1× in the assay (final DMSO concentration=1%). Most Kds were determined using a compound top concentration=30,000 nM. If the initial Kd determined was <0.5 nM (the lowest concentration tested), the measurement was repeated with a serial dilution starting at a lower top concentration.
In general terms: In qPCR the cycle at which signal appears reflects the starting amount.
T1 sequence (Q9Y2I7 whole entry, the tested form may be a part): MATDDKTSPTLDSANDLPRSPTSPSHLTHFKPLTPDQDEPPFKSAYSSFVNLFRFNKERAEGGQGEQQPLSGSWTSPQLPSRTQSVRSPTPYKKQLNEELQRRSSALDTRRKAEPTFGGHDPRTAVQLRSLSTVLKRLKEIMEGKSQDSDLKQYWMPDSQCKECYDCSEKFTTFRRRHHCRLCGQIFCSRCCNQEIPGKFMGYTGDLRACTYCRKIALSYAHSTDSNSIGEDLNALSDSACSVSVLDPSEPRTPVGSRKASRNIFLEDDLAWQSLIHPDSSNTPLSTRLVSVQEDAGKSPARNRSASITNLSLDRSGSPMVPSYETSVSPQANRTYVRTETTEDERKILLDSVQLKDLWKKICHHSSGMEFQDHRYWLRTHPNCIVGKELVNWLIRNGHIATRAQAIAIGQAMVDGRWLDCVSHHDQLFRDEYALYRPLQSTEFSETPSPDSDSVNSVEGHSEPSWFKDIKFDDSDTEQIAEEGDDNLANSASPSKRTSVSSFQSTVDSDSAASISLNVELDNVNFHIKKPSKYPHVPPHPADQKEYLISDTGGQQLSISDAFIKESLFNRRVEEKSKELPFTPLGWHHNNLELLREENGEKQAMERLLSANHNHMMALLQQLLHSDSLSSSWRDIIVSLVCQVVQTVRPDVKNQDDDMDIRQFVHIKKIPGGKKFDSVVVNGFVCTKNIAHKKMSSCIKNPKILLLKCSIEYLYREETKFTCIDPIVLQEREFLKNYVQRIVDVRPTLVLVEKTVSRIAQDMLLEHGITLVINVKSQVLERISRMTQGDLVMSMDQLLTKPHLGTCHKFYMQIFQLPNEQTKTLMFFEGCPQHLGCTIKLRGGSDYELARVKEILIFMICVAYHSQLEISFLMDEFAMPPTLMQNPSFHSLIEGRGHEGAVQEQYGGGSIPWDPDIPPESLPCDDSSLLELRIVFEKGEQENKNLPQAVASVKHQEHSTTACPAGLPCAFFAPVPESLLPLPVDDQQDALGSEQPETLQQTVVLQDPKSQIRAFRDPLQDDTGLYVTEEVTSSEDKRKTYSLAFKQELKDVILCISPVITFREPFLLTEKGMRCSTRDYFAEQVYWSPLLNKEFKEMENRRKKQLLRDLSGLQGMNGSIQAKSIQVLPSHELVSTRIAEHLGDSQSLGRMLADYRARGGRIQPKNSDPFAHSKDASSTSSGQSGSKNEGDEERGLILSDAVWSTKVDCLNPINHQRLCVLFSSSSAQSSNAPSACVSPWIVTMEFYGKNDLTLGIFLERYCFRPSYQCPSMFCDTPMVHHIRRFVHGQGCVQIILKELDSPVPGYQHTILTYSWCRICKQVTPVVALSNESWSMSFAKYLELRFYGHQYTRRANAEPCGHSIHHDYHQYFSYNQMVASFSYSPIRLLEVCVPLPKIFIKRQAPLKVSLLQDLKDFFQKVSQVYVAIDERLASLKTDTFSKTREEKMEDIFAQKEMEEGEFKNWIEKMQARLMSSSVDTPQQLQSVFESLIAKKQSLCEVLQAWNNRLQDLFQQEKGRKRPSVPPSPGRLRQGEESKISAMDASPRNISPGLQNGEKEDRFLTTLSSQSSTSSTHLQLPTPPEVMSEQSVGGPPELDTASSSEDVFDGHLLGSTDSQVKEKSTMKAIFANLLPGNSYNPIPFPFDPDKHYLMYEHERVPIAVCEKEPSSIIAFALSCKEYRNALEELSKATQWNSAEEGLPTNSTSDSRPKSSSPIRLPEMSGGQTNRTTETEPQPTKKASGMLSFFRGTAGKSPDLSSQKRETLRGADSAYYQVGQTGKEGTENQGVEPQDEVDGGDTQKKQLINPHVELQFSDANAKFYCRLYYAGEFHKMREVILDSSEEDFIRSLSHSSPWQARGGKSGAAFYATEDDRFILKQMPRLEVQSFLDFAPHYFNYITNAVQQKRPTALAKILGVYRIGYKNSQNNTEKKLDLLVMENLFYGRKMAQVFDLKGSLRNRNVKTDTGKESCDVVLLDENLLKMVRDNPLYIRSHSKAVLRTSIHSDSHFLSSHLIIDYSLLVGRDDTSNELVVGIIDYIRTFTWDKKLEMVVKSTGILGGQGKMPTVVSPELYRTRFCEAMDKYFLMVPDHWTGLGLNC
On to `Cc1cccc(-c2cc(O)n(-c3nc4c(c(N5CCOCC5)n3)CN(C(=O)Nc3cccnc3)C4)n2)c1` [Example 38, 2-[5-hydroxy-3-(m-tolyl)pyrazol-1-yl]-4-morpholino-N-(3-pyridyl)-5,7-dihydropyrrolo[3,4-d]pyrimidine-6-carboxamide methane sulfonate], for which the Kd (in general, the concentration at which binding is half-saturated) was 5 to 10 nM. Next, `Cc1cccc(/C=N/Nc2cc(N3CCOCC3)n3nc(C(=O)NC4COC4)cc3n2)c1` [Example 41, 7-morpholino-5-[(2E)-2-(m-tolylmethylene)hydrazino]-N-(oxetan-3-yl)pyrazolo[1,5-a]pyrimidine-2-carboxamide]: at most 1 nM. Compound `Cc1cccc(/C=N/Nc2cc(N3CCOCC3)n3nc(C(=O)NC4CC(F)(F)C4)cc3n2)c1` [Example 42, N-(3,3-difluorocyclobutyl)-7-morpholino-5-[(2E)-2-(m-tolylmethylene)hydrazino]pyrazolo[1,5-a]pyrimidine-2-carboxamide] gave a Kd of 1 to 5 nM.

For the origin of these results see patent publication US20220168315A1, “COMPOUNDS AND THERAPEUTIC USES THEREOF” (priority 2019, published 2022).
